“And” between values parts separate entries of the source, which are not always exact repeats. Identical values can stand only once. ± gives the uncertainty stated by the source.
Assay: xn = mol fraction of the nth substance listed

OCCNCCO + O
Conditions | viscosity
293.15 K, 101 kPa, x1 = 0.15 | 12.5 ± 0.25 mPa·s
293.15 K, 101 kPa, x1 = 0.34 | 91.2 ± 2.2 mPa·s
293.15 K, 101.3 kPa, x1 = 0.02 | 1.499 mPa·s
293.15 K, 101.3 kPa, x1 = 0.04 | 2.204 mPa·s
293.15 K, 101.3 kPa, x1 = 0.1 | 6.515 ± 1.7 mPa·s and 12.37 ± 1.8 mPa·s
293.15 K, 101.3 kPa, x1 = 0.2 | 25.81 ± 2.2 mPa·s
293.15 K, 101.3 kPa, x1 = 0.3 | 53.68 ± 4.6 mPa·s
293.15 K, 101.3 kPa, x1 = 0.4 | 143.3 ± 18 mPa·s
293.15 K, 101.3 kPa, x1 = 0.6 | 353.7 ± 71 mPa·s
293.15 K, 101.33 kPa, x1 = 0.019 | 1.427 ± 0.019 mPa·s
293.15 K, 101.33 kPa, x1 = 0.041 | 2.171 ± 0.028 mPa·s
298.15 K, 101 kPa, x2 = 0.9 | 5.29 ± 0.05 mPa·s
298.15 K, 101 kPa, x2 = 0.9316 | 3.1 ± 0.03 mPa·s
298.15 K, 101.3 kPa, x1 = 0.02 | 1.259 mPa·s
298.15 K, 101.3 kPa, x1 = 0.04 | 1.875 mPa·s
298.15 K, 101.3 kPa, x1 = 0.07 | 3.04 mPa·s
298.15 K, 101.3 kPa, x1 = 0.1 | 5.221 ± 1.7 mPa·s and 9.782 ± 1.7 mPa·s
298.15 K, 101.3 kPa, x1 = 0.2 | 19.24 ± 1.8 mPa·s
298.15 K, 101.3 kPa, x1 = 0.3 | 39.15 ± 2.3 mPa·s
298.15 K, 101.3 kPa, x1 = 0.4 | 97.87 ± 7.9 mPa·s
298.15 K, 101.3 kPa, x1 = 0.6 | 245.4 ± 41 mPa·s
298.15 K, 101.33 kPa, x1 = 0.0093 | 1.051 ± 0.013 mPa·s
298.15 K, 101.33 kPa, x1 = 0.0188 | 1.255 ± 0.015 mPa·s
298.15 K, 101.33 kPa, x1 = 0.0414 | 1.875 ± 0.022 mPa·s
298.15 K, 101.33 kPa, x1 = 0.069 | 3.24 ± 0.036 mPa·s
298.15 K, 101.33 kPa, x1 = 0.1028 | 5.486 ± 0.059 mPa·s
298.15 K, 101.33 kPa, x1 = 0.1469 | 10.34 ± 0.1 mPa·s
298.15 K, 101.33 kPa, x1 = 0.2054 | 21.44 ± 0.19 mPa·s
298.15 K, 101.33 kPa, x1 = 0.2884 | 48.78 ± 0.43 mPa·s
298.15 K, 101.33 kPa, x1 = 0.4026 | 112.5 ± 3.1 mPa·s
298.15 K, 101.33 kPa, x1 = 0.6059 | 262.4 ± 15 mPa·s
298.15 K, 101.33 kPa, x1 = 0.8012 | 420.3 ± 30 mPa·s
298.15 K, 101.33 kPa, x1 = 0.9438 | 524.1 ± 42 mPa·s
303.15 K, 101 kPa, x1 = 0.0501 | 1.922 ± 0.11 mPa·s
303.15 K, 101 kPa, x1 = 0.1004 | 4.138 ± 0.15 mPa·s
303.15 K, 101 kPa, x1 = 0.1509 | 8.25 ± 0.23 mPa·s
303.15 K, 101 kPa, x1 = 0.2006 | 14.47 ± 0.38 mPa·s
303.15 K, 101 kPa, x1 = 0.3008 | 36.44 ± 0.89 mPa·s
303.15 K, 101 kPa, x1 = 0.4014 | 72.38 ± 1.6 mPa·s
303.15 K, 101 kPa, x1 = 0.5011 | 118.4 ± 2.9 mPa·s
303.15 K, 101 kPa, x1 = 0.5957 | 166.7 ± 4.5 mPa·s
303.15 K, 101 kPa, x1 = 0.6968 | 224.8 ± 6.8 mPa·s
303.15 K, 101 kPa, x1 = 0.8034 | 279.7 ± 9.1 mPa·s
303.15 K, 101 kPa, x1 = 0.9012 | 320.5 ± 11 mPa·s
303.15 K, 101.3 kPa, x1 = 0.02 | 1.106 mPa·s
303.15 K, 101.3 kPa, x1 = 0.07 | 2.74 mPa·s
303.15 K, 101.3 kPa, x1 = 0.1 | 4.42 ± 1.7 mPa·s and 8.008 ± 1.7 mPa·s
303.15 K, 101.3 kPa, x1 = 0.2 | 15.32 ± 1.8 mPa·s
303.15 K, 101.3 kPa, x1 = 0.3 | 31.19 ± 2.1 mPa·s
303.15 K, 101.3 kPa, x1 = 0.4 | 73.47 ± 4 mPa·s
303.15 K, 101.3 kPa, x1 = 0.6 | 162.7 ± 20 mPa·s
303.15 K, 101.33 kPa, x1 = 0.068 | 2.542 ± 0.032 mPa·s
308.15 K, 101 kPa, x1 = 0.04 | 1.455 ± 0.0086 mPa·s
308.15 K, 101 kPa, x1 = 0.0501 | 1.679 ± 0.11 mPa·s
308.15 K, 101 kPa, x1 = 0.054 | 1.795 ± 0.0098 mPa·s
308.15 K, 101 kPa, x1 = 0.1004 | 3.502 ± 0.13 mPa·s
308.15 K, 101 kPa, x1 = 0.1509 | 6.653 ± 0.19 mPa·s
308.15 K, 101 kPa, x1 = 0.2006 | 11.56 ± 0.29 mPa·s
308.15 K, 101 kPa, x1 = 0.3008 | 27.8 ± 0.63 mPa·s
308.15 K, 101 kPa, x1 = 0.4014 | 53.45 ± 1.1 mPa·s
308.15 K, 101 kPa, x1 = 0.5011 | 85.56 ± 1.9 mPa·s
308.15 K, 101 kPa, x1 = 0.5957 | 119 ± 2.8 mPa·s
308.15 K, 101 kPa, x1 = 0.6968 | 158.6 ± 4.2 mPa·s
308.15 K, 101 kPa, x1 = 0.8034 | 197.1 ± 5.6 mPa·s
313.15 K, 101 kPa, x1 = 0.054 | 1.585 ± 0.009 mPa·s
313.15 K, 101.3 kPa, x1 = 0.02 | 0.896 mPa·s
313.15 K, 101.3 kPa, x1 = 0.2 | 10.02 ± 1.7 mPa·s
313.15 K, 101.3 kPa, x1 = 0.3 | 17.89 ± 1.8 mPa·s
313.15 K, 101.3 kPa, x1 = 0.4 | 41.02 ± 2.4 mPa·s
313.15 K, 101.3 kPa, x1 = 0.6 | 88.54 ± 6.1 mPa·s
313.15 K, 101.33 kPa, x1 = 0.0093 | 0.755 ± 0.01 mPa·s
313.15 K, 101.33 kPa, x1 = 0.0188 | 0.878 ± 0.011 mPa·s
313.15 K, 101.33 kPa, x1 = 0.019 | 0.898 ± 0.012 mPa·s
313.15 K, 101.33 kPa, x1 = 0.041 | 1.28 ± 0.016 mPa·s
313.15 K, 101.33 kPa, x1 = 0.0414 | 1.25 ± 0.015 mPa·s
313.15 K, 101.33 kPa, x1 = 0.068 | 1.93 ± 0.024 mPa·s
313.15 K, 101.33 kPa, x1 = 0.069 | 1.884 ± 0.022 mPa·s
313.15 K, 101.33 kPa, x1 = 0.1469 | 5.522 ± 0.06 mPa·s
313.15 K, 101.33 kPa, x1 = 0.2054 | 10.42 ± 0.1 mPa·s
313.15 K, 101.33 kPa, x1 = 0.2884 | 21.56 ± 0.19 mPa·s
313.15 K, 101.33 kPa, x1 = 0.4026 | 44.04 ± 0.38 mPa·s
313.15 K, 101.33 kPa, x1 = 0.6059 | 95.06 ± 2.1 mPa·s
313.15 K, 101.33 kPa, x1 = 0.8012 | 143.9 ± 5.2 mPa·s
313.15 K, 101.33 kPa, x1 = 0.9438 | 175.3 ± 7.5 mPa·s
323.15 K, 101 kPa, x1 = 0.041 | 1.08 ± 0.01 mPa·s
323.15 K, 101 kPa, x1 = 0.15 | 4.27 ± 0.05 mPa·s
323.15 K, 101 kPa, x1 = 0.34 | 20.7 ± 0.32 mPa·s
323.15 K, 101.3 kPa, x1 = 0.02 | 0.747 mPa·s
323.15 K, 101.3 kPa, x1 = 0.04 | 1.063 mPa·s
323.15 K, 101.3 kPa, x1 = 0.07 | 1.604 mPa·s
323.15 K, 101.3 kPa, x1 = 0.2 | 6.501 ± 1.7 mPa·s
323.15 K, 101.3 kPa, x1 = 0.3 | 12.21 ± 1.7 mPa·s
323.15 K, 101.3 kPa, x1 = 0.4 | 24.08 ± 1.9 mPa·s
323.15 K, 101.3 kPa, x1 = 0.6 | 52.49 ± 2.5 mPa·s
323.15 K, 101.33 kPa, x1 = 0.068 | 1.469 ± 0.019 mPa·s
